Source: PubChem BioAssay (NCI)
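Briefly, cells in 96-well plates were exposed to five compound concentrations for 48 h, and endpoints were estimated by linear interpolation. TGI: concentration producing complete growth inhibition.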

Tests used:
Assay in all cases: DTP human tumour cell line panel, 48 h
[1] = test system: 786-0 renal
[2] = test system: A498 renal
[3] = test system: A549 NSCLC
[4] = test system: ACHN renal
[5] = test system: CAKI-1 renal
[6] = test system: CCRF-CEM leukemia
[7] = test system: COLO 205 colon
[8] = test system: DLD-1 colon
[9] = test system: DMS 114 small cell lung
[10] = test system: DMS 273 small cell lung
[11] = test system: EKVX NSCLC
[12] = test system: HCC-2998 colon
[13] = test system: HCT-116 colon
[14] = test system: HCT-15 colon
[15] = test system: HL-60(TB) leukemia
[16] = test system: HOP-18 NSCLC
[17] = test system: HOP-62 NSCLC
[18] = test system: HOP-92 NSCLC
[19] = test system: HT29 colon
[20] = test system: IGROV1 ovarian
[21] = test system: K-562 leukemia
[22] = test system: KM12 colon
[23] = test system: KM20L2 colon
[24] = test system: LOX IMVI melanoma
[25] = test system: LXFL 529 NSCLC
[26] = test system: M14 melanoma
[27] = test system: M19-MEL melanoma
[28] = test system: MALME-3M melanoma
[29] = test system: MOLT-4 leukemia
[30] = test system: NCI-H226 lung
[31] = test system: NCI-H23 lung
[32] = test system: NCI-H460 lung
[33] = test system: NCI-H522 lung
[34] = test system: OVCAR-3 ovarian
[35] = test system: OVCAR-4 ovarian
[36] = test system: OVCAR-5 ovarian
[37] = test system: OVCAR-8 ovarian
[38] = test system: RPMI-8226 leukemia
[39] = test system: RXF 393 renal
[40] = test system: RXF-631 renal
[41] = test system: SF-268 CNS
[42] = test system: SF-295 CNS
[43] = test system: SF-539 CNS
[44] = test system: SK-MEL-2 melanoma
[45] = test system: SK-MEL-28 melanoma
[46] = test system: SK-MEL-5 melanoma
[47] = test system: SK-OV-3 ovarian
[48] = test system: SN12C renal
[49] = test system: SNB-19 CNS
[50] = test system: SNB-75 CNS
[51] = test system: SNB-78 CNS
[52] = test system: SR leukemia
[53] = test system: SW-620 colon
[54] = test system: TK-10 renal
[55] = test system: U251 CNS
[56] = test system: UACC-257 melanoma
[57] = test system: UACC-62 melanoma
[58] = test system: UO-31 renal
[59] = test system: XF 498 CNS

`CCCCOCc1cc(CN2CCN(C)CC2)c(O)c2ncccc12` showed a TGI [1] of 50.7 µM, a TGI [2] of 78.9 µM and a TGI [3] of over 100 µM. For the same compound, the TGI [4] was 54.2 µM, the TGI [5] was over 100 µM and the TGI [6] was 30.2 µM. It also gave a TGI [7] of over 100 µM, a TGI [8] of over 100 µM and a TGI [9] of 23.9 µM. It also gave a TGI [10] of 40.2 µM, a TGI [11] of over 100 µM and a TGI [12] of 90.2 µM. It also gave a TGI [13] of 87 µM, a TGI [14] of 33.7 µM and a TGI [15] of 13.8 µM. It also gave a TGI [16] of 39.9 µM, a TGI [17] of 41.8 µM and a TGI [18] of over 100 µM. For the same compound, the TGI [19] was over 100 µM, the TGI [20] was 97.3 µM and the TGI [21] was over 100 µM. The TGI [22] was over 100 µM, the TGI [23] was 73.7 µM and the TGI [24] was over 100 µM. It also gave a TGI [25] of over 100 µM, a TGI [26] of 90 µM and a TGI [27] of over 100 µM. For the same compound, the TGI [28] was over 100 µM, the TGI [29] was 77.2 µM and the TGI [30] was 88.4 µM. The TGI [31] was 47.6 µM, the TGI [32] was over 100 µM and the TGI [33] was over 100 µM. For the same compound, the TGI [34] was over 100 µM, the TGI [35] was over 100 µM and the TGI [36] was 95.8 µM. The TGI [37] was over 100 µM, the TGI [38] was 26.3 µM and the TGI [39] was over 100 µM. For the same compound, the TGI [40] was over 100 µM, the TGI [41] was over 100 µM and the TGI [42] was 33.5 µM. For the same compound, the TGI [43] was 76.7 µM, the TGI [44] was over 100 µM and the TGI [45] was over 100 µM. For the same compound, the TGI [46] was 26.8 µM, the TGI [47] was over 100 µM and the TGI [48] was over 100 µM. The TGI [49] was over 100 µM, the TGI [50] was over 100 µM and the TGI [51] was over 100 µM. The TGI [52] was 33.2 µM, the TGI [53] was 81.4 µM and the TGI [54] was over 100 µM. It also gave a TGI [55] of 44.4 µM, a TGI [56] of over 100 µM and a TGI [57] of 40.6 µM. For the same compound, the TGI [58] was 55.8 µM and the TGI [59] was over 100 µM.

`CC(CNCCCNCCNCCCNCO)[N+](=O)[O-]` (configuration not stated) gave a TGI [1] of 29.3 µM, a TGI [2] of 32.3 µM and a TGI [3] of 57 µM. It also gave a TGI [4] of 30.3 µM, a TGI [5] of 18.6 µM and a TGI [6] of 11.5 µM. For the same compound, the TGI [7] was 19.3 µM, the TGI [8] was 14.4 µM and the TGI [9] was 30.6 µM. For the same compound, the TGI [10] was 32.4 µM, the TGI [11] was 29.9 µM and the TGI [12] was 31 µM. The TGI [13] was 22.7 µM, the TGI [14] was 23.2 µM and the TGI [15] was 19.1 µM. The TGI [16] was 28.3 µM, the TGI [17] was over 100 µM and the TGI [18] was 8.57 µM. It also gave a TGI [19] of 41.7 µM, a TGI [20] of 44.3 µM and a TGI [21] of 19.6 µM. The TGI [22] was 29.7 µM, the TGI [23] was 31.7 µM and the TGI [24] was 28.2 µM. For the same compound, the TGI [25] was 13.9 µM, the TGI [26] was 23.6 µM and the TGI [28] was 4.22 µM. It also gave a TGI [29] of 30.4 µM, a TGI [31] of 28.6 µM and a TGI [32] of 32.3 µM. It also gave a TGI [34] of 30.4 µM, a TGI [35] of 27.9 µM and a TGI [36] of 26.8 µM. It also gave a TGI [37] of 27.9 µM, a TGI [38] of 35 µM and a TGI [39] of 29.2 µM. It also gave a TGI [40] of 30.3 µM, a TGI [41] of 29.6 µM and a TGI [42] of over 100 µM. The TGI [43] was 29.2 µM, the TGI [44] was 29.4 µM and the TGI [45] was 26.6 µM. The TGI [46] was 29.9 µM, the TGI [47] was over 100 µM and the TGI [48] was 28.4 µM. It also gave a TGI [49] of over 100 µM, a TGI [50] of 35.3 µM and a TGI [51] of 48.3 µM. For the same compound, the TGI [52] was 28.4 µM, the TGI [53] was 12.2 µM and the TGI [54] was 8.6 µM. It also gave a TGI [55] of 29.5 µM, a TGI [56] of 26.1 µM and a TGI [57] of 29.9 µM. The TGI [58] was 32.3 µM and the TGI [59] was 29.9 µM.

Compound `O=[N+]([O-])c1ccccc1C=NC12CC3CC(CC(C3)C1)C2` has a TGI [1] of over 100 µM, a TGI [2] of over 100 µM and a TGI [3] of over 100 µM. For the same compound, the TGI [4] was over 100 µM, the TGI [5] was over 100 µM and the TGI [6] was over 100 µM. For the same compound, the TGI [7] was over 100 µM, the TGI [8] was over 100 µM and the TGI [10] was over 100 µM. For the same compound, the TGI [11] was over 100 µM, the TGI [12] was over 100 µM and the TGI [13] was over 100 µM. For the same compound, the TGI [14] was over 100 µM, the TGI [15] was 57.1 µM and the TGI [16] was over 100 µM. For the same compound, the TGI [17] was over 100 µM, the TGI [18] was over 100 µM and the TGI [19] was over 100 µM. It also gave a TGI [20] of over 100 µM, a TGI [21] of over 100 µM and a TGI [22] of over 100 µM. The TGI [23] was over 100 µM, the TGI [24] was over 100 µM and the TGI [25] was over 100 µM. For the same compound, the TGI [26] was over 100 µM, the TGI [27] was over 100 µM and the TGI [28] was over 100 µM. It also gave a TGI [29] of over 100 µM, a TGI [30] of over 100 µM and a TGI [31] of over 100 µM. The TGI [32] was over 100 µM, the TGI [33] was over 100 µM and the TGI [34] was over 100 µM. The TGI [35] was over 100 µM, the TGI [36] was over 100 µM and the TGI [37] was over 100 µM. For the same compound, the TGI [38] was over 100 µM, the TGI [39] was over 100 µM and the TGI [40] was over 100 µM. The TGI [41] was over 100 µM, the TGI [42] was over 100 µM and the TGI [43] was over 100 µM. It also gave a TGI [44] of over 100 µM, a TGI [45] of over 100 µM and a TGI [46] of over 100 µM. It also gave a TGI [47] of over 100 µM, a TGI [48] of over 100 µM and a TGI [49] of over 100 µM. For the same compound, the TGI [50] was over 100 µM, the TGI [51] was over 100 µM and the TGI [53] was over 100 µM. The TGI [54] was over 100 µM, the TGI [55] was over 100 µM and the TGI [56] was over 100 µM. The TGI [57] was over 100 µM, the TGI [58] was over 100 µM and the TGI [59] was over 100 µM.
